The source of these data is paper PMC6886544.

Where “and” joins values, the source holds several entries; their conditions need not be identical. Equal values may be shown once.

The target of series [1] is LCK (Homo sapiens, UniProt P06239). Description: SelectScreen kinase profiling, LCK. The format is biochemical. Particulars: mean ± SD of one measurement in duplicates. The protocol:
(§1) Kinase profiling of compound 17a at a concentration of 1 µM generated with the SelectScreen® Profiling Service from Life Technologies.
(§2) Figure S2. Kinase profiling of compound 17a, Illustration as waterfall plot. 9 Kinases harboring a Cysteine isostructural to Cys797 in EGFR are highlighted
(§3) Kinase % inhibition Kinase % inhibition […]
(§4) aValues are the mean ± SD of one measurement in duplicates; bKinases harboring a Cysteine isostructural to Cys797 […]
(§5) (1 picture or pasted object on this page, not shown here)

In series [2] the target is Her2 (Homo sapiens, UniProt P04626). Kind of series: SelectScreen kinase profiling, Her2. The format is biochemical. To be noted: mean ± SD of one measurement in duplicates. The protocol: as §1, §2, §3, §4, §5
For series [3], the target named is ROS1 (Homo sapiens, UniProt P08922). Description: SelectScreen kinase profiling, ROS1. The series is classed as biochemical. To be noted: mean ± SD of one measurement in duplicates. How it is done: as §1, §2, §3, §4, §5
A short description of series [4]: Plasma stability, human. The series is classed as in vitro ADME. To be noted: 5 µM, 1 h, 37 °C.
The nature of series [5]: In vivo pharmacokinetics in mice. The protocol: In vivo pharmacokinetics.
To determine the pharmacokinetics of 19h, totally 36 male RjOrl:SWISS (CD1) mice, age 8−10 weeks, body weight (bw) between 29 and 31 g, were purchased from Janvier, Saint-Berthevin Cedex, France. Mice were fed ad libitum with Allein-Futter für Ratten-/Mäusehaltung from Sniff Special Diets GmbH, Germany. They had free access to water and were kept in a 12 h day/night rhythm. All experiments were approved by the local authorities. Pharmacokinetics were studied for the oral (PO), intraperitoneal (IP), and intravenous (IV) route of administration. For the oral and […]
intraperitoneal routes, a stock solution of 2 mg/mL of 19h in a solution consisting of 10% of DMSO and to 90% of an aqueous solution of 30% 2-hydroxypropyl-β-cyclodextrin was prepared. To reach doses of 20 mg/kg bw, 300 μL were administered per 30 g of mouse bw. For the intravenous route of administration, a 2 mg/mL DMSO solution was prepared and 30 μL were applied to a 30 g mouse to reach a concentration of 2 mg/kg bw. Mice were sacrificed 5, 15, 45, and 135 min after administration of the test compound, and approximately 100 μL of blood was taken from the left heart chamber. Three mice were analyzed per time point and route of administration (PO, IP and IV), respectively. Immediately after sampling, blood was centrifuged at 16200g for 10 min at 4 °C and plasma was stored at -80 °C until LC/MS analysis of 19h. Prior to LC-MS/MS analysis, plasma proteins were precipitated with acetonitrile containing an internal standard, and samples were filtered. A calibration curve was obtained from spiked blank plasma samples. 19h was measured using a Shimadzu UPLC system connected to a QTrap 4000 hybrid triple quadrupole/linear ion trap mass spectrometer (AB Sciex). The regression equation of the calibration curve was used to calculate plasma concentrations. Pharmacokinetic parameters were calculated using the PKSolver software2.

The target in series [6] is EGFR-wt (Homo sapiens, UniProt P00533). Kind of series: Kinetic characterization (Ki, kinact), EGFR-wt.
The mark [7] stands for this setting: male, RjOrl:SWISS (CD1), mouse, plasma, IP 20 mg kg-1.
The mark [8] stands for this setting: male, RjOrl:SWISS (CD1), mouse, plasma, IP 20 mg kg^–1.
Setting [9] is: male, RjOrl:SWISS (CD1), mouse, plasma, IV 2 mg kg-1.
Setting [10] is: male, RjOrl:SWISS (CD1), mouse, plasma, PO 20 mg kg-1.

Sequence of EGFR-wt (P00533 25-1210): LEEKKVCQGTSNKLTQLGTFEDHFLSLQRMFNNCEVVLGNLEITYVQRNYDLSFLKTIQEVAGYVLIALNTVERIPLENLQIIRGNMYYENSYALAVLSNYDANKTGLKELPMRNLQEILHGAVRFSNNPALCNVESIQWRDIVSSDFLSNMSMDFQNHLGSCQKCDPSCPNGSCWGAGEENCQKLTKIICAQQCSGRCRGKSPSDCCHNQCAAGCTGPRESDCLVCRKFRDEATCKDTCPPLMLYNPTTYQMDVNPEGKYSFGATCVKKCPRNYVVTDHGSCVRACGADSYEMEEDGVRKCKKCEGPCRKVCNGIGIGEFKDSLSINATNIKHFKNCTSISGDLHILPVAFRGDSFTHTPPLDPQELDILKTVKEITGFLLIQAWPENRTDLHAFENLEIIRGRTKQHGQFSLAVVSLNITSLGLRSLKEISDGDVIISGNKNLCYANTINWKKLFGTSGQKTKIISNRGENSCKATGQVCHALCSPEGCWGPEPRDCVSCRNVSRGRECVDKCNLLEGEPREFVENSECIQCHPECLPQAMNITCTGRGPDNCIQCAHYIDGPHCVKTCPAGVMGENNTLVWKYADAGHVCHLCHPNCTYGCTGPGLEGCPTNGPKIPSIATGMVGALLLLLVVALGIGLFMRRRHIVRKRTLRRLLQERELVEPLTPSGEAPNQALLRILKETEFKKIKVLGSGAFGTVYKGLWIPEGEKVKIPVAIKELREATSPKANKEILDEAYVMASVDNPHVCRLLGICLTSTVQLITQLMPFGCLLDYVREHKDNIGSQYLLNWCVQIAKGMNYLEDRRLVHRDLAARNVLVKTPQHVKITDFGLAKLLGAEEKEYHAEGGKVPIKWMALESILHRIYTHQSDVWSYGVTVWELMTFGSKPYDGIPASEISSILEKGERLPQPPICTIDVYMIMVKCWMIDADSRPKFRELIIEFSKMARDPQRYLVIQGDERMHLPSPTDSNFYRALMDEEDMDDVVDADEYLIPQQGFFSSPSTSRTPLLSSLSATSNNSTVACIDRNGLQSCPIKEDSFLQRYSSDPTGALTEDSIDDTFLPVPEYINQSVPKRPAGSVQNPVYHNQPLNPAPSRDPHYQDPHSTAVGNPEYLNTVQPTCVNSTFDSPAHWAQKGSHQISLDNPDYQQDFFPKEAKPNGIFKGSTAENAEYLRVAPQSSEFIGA
Sequence of Her2 (P04626 23-1255): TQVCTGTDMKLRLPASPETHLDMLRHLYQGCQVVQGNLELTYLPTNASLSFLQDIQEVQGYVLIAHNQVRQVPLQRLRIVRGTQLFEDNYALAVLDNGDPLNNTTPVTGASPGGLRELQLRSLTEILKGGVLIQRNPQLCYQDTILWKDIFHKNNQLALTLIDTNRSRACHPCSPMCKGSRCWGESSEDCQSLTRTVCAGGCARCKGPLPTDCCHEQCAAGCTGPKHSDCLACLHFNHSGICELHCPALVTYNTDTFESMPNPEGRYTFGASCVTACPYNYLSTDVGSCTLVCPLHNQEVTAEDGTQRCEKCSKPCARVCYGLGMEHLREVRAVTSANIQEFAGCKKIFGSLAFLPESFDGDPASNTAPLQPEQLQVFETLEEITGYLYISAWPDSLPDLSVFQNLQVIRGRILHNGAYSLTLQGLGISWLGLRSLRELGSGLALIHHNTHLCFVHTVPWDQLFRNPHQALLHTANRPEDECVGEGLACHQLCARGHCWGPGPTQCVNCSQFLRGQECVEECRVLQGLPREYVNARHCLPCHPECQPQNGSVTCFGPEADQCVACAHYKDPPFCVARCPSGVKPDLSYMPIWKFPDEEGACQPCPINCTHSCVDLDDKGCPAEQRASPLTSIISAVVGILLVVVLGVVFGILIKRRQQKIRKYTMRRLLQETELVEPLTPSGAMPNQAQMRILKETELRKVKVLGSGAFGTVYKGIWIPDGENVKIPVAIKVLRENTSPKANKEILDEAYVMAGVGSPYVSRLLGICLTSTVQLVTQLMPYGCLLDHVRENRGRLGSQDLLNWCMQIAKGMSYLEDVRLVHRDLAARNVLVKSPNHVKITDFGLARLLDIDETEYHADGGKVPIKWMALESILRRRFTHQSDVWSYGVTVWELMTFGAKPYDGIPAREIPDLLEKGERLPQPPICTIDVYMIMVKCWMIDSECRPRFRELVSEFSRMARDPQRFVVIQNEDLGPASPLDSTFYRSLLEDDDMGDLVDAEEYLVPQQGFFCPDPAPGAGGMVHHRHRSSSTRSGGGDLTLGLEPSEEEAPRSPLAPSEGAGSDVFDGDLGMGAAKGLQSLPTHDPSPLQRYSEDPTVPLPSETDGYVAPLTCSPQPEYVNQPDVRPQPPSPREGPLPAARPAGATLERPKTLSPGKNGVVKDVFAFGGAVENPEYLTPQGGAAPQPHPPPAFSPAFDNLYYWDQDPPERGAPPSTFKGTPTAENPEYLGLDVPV
Sequence of LCK (P06239 whole entry): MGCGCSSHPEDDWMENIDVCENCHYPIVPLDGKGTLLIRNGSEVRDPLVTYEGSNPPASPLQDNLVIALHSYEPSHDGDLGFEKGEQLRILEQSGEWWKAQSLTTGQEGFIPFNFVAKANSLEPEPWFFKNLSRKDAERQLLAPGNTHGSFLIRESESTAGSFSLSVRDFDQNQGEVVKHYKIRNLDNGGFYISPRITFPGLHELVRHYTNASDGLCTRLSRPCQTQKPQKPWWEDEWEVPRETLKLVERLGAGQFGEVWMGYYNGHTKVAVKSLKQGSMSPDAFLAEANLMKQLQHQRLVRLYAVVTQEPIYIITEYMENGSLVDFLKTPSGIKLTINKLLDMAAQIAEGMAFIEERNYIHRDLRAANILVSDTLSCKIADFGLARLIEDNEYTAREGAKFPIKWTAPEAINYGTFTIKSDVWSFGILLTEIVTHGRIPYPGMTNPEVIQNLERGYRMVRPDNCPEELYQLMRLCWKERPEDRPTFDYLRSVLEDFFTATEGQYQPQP

On to `C=CC(=O)Nc1cccc(-c2c(-c3ccc(CN4CCN(C)CC4)cc3)[nH]c3ncnc(OC)c23)c1` [Compound 17a], for which the values for the inhibition at 1 µM in series [1], in series [2] and in series [3] were 80%, 82 ± 6% and 92%, respectively.

For the compound `C=CC(=O)Nc1cccc(-c2c(-c3ccc(N4CCN(C)CC4)cc3)[nH]c3ncnc(OCC(C)C)c23)c1` [Compound 19h], in series [4], the Plasma stability was 99 %remain and 100 %remain. Further, in series [5] (IP 20 mg kg-1), the F0-t is 258% and the t1/2 amounted to 1.2 h. Moreover, the “Cmax, free” value in series [5] (IP 20 mg kg^–1) stood at 0.012 µM. This compound showed an F0-t in series [5] (PO 20 mg kg-1) of 9%. Moreover, in series [5] (after both IP and PO), the “time blood plasma concentration maintained above in vitro EC50 in H1975 cells” value was “more than two hours”. In series [5] (setting [7]), the AUC(0-t) was determined as 2870 ng·h/mL and the highest level (Cmax) was 1770 ng/mL. In series [5] (setting [8]), this compound gave an AUC of 8.6 ng·h/mL and a Cmax of 3.5 µM. In series [5] (setting [9]), this compound gave an AUC(0-t) of 111 ng·h/mL, a C0 of 258 ng/mL and a clearance of 250 mL/min/kg. For the same compound, the Vd in series [5] (male, RjOrl:SWISS (CD1), mouse, plasma, IV 2 mg kg-1, read-out: Vss) is 16 L/kg. In addition, in series [5] (setting [10]), the AUC(0-t) is 101 ng·h/mL and the Cmax amounted to 56 ng/mL. This compound had a half-life in series [5] (male, RjOrl:SWISS (CD1), mouse, plasma, ip, 20 mg/kg, IP 20 mg kg-1) of 1.21 h. Further, the half-life in series [5] (male, RjOrl:SWISS (CD1), mouse, plasma, iv, 2 mg/kg, IV 2 mg kg-1) is 0.89 h. In addition, in series [6], the Ki is 0.4 ± 0.1 nM, the maximal inactivation rate constant (kinact) is 0.000833 s⁻¹ and the kinact/KI is 1.98e+06 ± 220000 M⁻¹ s⁻¹.

In general, inhibition refers to how much of the control response was suppressed. Read a low inhibition as a response near the control. One may read the AUC(0-t) as exposure summed from dosing to a finite time, without extrapolation to infinity. The term Cmax denotes the maximum level reached in the sampled fluid or tissue. In general, AUC refers to concentration integrated over time. For orientation: clearance means the volume of plasma or blood freed of the substance per unit of time. The half-life is how long it takes for the measured level to halve. The low end stands for fast loss, the high end for slow loss. One may read the Ki as a dissociation constant, usually derived from enzyme kinetics or from competition with a known ligand. A higher Ki goes with lower affinity. The term kinact denotes the rate constant of inactivation at saturating inhibitor. In general, kinact/KI refers to the second-order rate constant of inactivation.
